In the assay the test system is PDE4. Nature of the assay: PDE4 inhibition, scintillation proximity assay (SPA).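 Further: A below 100 nM B 100 to below 1000 nM C 1000 nM or more.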 The format is biochemical. The following applies: scintillation proximity assay (SPA); evaluated as classes A, B, C; read-out: PDE4 Inhibitory Activity (concentration for the inhibition rate of 50%). Summed up:
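Scintillation proximity read-out: [2,8-3H]-cAMP hydrolysis by PDE4 ran 120 min at room temperature in Tris-HCl pH 7.4 buffer with 8.3 mM MgCl2, 1.7 mM EGTA and 3 mg/mL BSA. Bead-bound product (YSi-SPA with ZnSO4, 15 min) counted; blank lacks enzyme, control has DMSO only.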
A general note: Scintillation proximity formats need no separation of bound from free tracer.
Take `COC(C)c1cc(-c2nccs2)c2oc(N3CC4CCC(C3)N4)nc2c1OC(F)(F)F` (stereo not drawn) [Example 210, 2-(3,8-Diazabicyclo[3.2.1]octan-3-yl)-5-(1-methoxyethyl)-7-(thiazol-2-yl)-4-(trifluoromethoxy)benzo[d]oxazole]: the IC50 is < 100 nM.

Consider `COC(C)c1cc(-c2nccs2)c2oc(N3CC4CC(C3)N4)nc2c1OC(F)(F)F` (stereo not drawn) [Example 211, 2-(3,6-Diazabicyclo[3.1.1]heptan-3-yl)-5-(1-methoxyethyl)-7-(thiazol-2-yl)-4-(trifluoromethoxy)benzo[d]oxazole], for which the IC50 is < 100 nM.

Take `CC(=O)c1cc(-c2nccs2)c2oc(N3CC4CC(C3)N4)nc2c1OC(F)(F)F` [Example 212, 1-(2-(3,6-Diazabicyclo[3.1.1]heptan-3-yl)-7-(thiazol-2-yl)-4-(trifluoromethoxy)benzo[d]oxazol-5-yl)ethan-1-one]: the IC50 is < 100 nM.

Regarding `CC(=O)c1cc(-c2nccs2)c2oc(N3CC4CCC(C3)N4)nc2c1OC(F)(F)F` [Example 213, 1-(2-(3,8-Diazabicyclo[3.2.1]octan-3-yl)-7-(thiazol-2-yl)-4-(trifluoromethoxy)benzo[d]oxazol-5-yl)ethan-1-one], the IC50 is < 100 nM.

`COC(C)(c1cc(-c2nccs2)c2oc(N3CC4CC(C3)N4)nc2c1OC(F)(F)F)C(F)(F)F` (stereo not drawn) [Example 214, 2-(3,6-Diazabicyclo[3.1.1]heptan-3-yl)-7-(thiazol-2-yl)-5-(1,1,1-trifluoro-2-methoxypropan-2-yl)-4-(trifluoromethoxy)benzo[d]oxazole]: the IC50 was < 100 nM.

Regarding `COC(C)(c1cc(-c2nccs2)c2oc(N3CC4CCC(C3)N4)nc2c1OC(F)(F)F)C(F)(F)F` (stereo not drawn) [Example 215, 2-(3,8-Diazabicyclo[3.2.1]octan-3-yl)-7-(thiazol-2-yl)-5-(1,1,1-trifluoro-2-methoxypropan-2-yl)-4-(trifluoromethoxy)benzo[d]oxazole], the IC50 was < 100 nM.

With `CC(O)(c1cc(-c2nccs2)c2oc(N3CC4CC(C3)N4)nc2c1OC(F)(F)F)C(F)(F)F` (stereo not drawn) [Example 216, 2-(2-(3,6-Diazabicyclo[3.1.1]heptan-3-yl)-7-(thiazol-2-yl)-4-(trifluoromethoxy)benzo[d]oxazol-5-yl)-1,1,1-trifluoropropan-2-ol], the IC50 was < 100 nM.

Take `CC(O)(c1cc(-c2nccs2)c2oc(N3CC4CCC(C3)N4)nc2c1OC(F)(F)F)C(F)(F)F` (stereo not drawn) [Example 217, 2-(2-(3,8-Diazabicyclo[3.2.1]octan-3-yl)-7-(thiazol-2-yl)-4-(trifluoromethoxy)benzo[d]oxazol-5-yl)-1,1,1-trifluoropropan-2-ol]: the IC50 is < 100 nM.

Take `CCOC(c1ccc(-c2nccs2)c2oc(N3CC4CCC(C3)N4)nc12)C(F)(F)F` (stereo not drawn) [Example 220, 2-(3,8-Diazabicyclo[3.2.1]octan-3-yl)-4-(1-ethoxy-2,2,2-trifluoroethyl)-7-(thiazol-2-yl)benzo[d]oxazole]: the IC50 is < 100 nM.

Take `FC(F)(F)COC(c1ccc(-c2nccs2)c2oc(N3CC4CCC(C3)N4)nc12)C(F)(F)F` (stereo not drawn) [Example 221, 2-(3,8-Diazabicyclo[3.2.1]octan-3-yl)-7-(thiazol-2-yl)-4-(2,2,2-trifluoro-1-(2,2,2-trifluoroethoxy)ethyl)benzo[d]oxazole]: the IC50 is < 100 nM.

For `COC(c1ccc(-c2nccs2)c2oc(N3CC4CCC(C3)N4)nc12)C(F)(F)F` (stereo not drawn) [Example 222, 2-(3,8-Diazabicyclo[3.2.1]octan-3-yl)-7-(thiazol-2-yl)-4-(2,2,2-trifluoro-1-methoxyethyl)benzo[d]oxazole], the IC50 is < 100 nM.

Regarding `FC(F)(F)COC(c1ccc(-c2nccs2)c2oc(N3CC4CC(C3)N4)nc12)C(F)(F)F` (stereo not drawn) [Example 223, 2-(3,6-Diazabicyclo[3.1.1]heptan-3-yl)-7-(thiazol-2-yl)-4-(2,2,2-trifluoro-1-(2,2,2-trifluoroethoxy)ethyl)benzo[d]oxazole], the IC50 was < 100 nM.

In the case of `CCOC(c1ccc(-c2nccs2)c2oc(N3CC4CC(C3)N4)nc12)C(F)(F)F` (stereo not drawn) [Example 224, 2-(3,6-Diazabicyclo[3.1.1]heptan-3-yl)-4-(1-ethoxy-2,2,2-trifluoroethyl)-7-(thiazol-2-yl)benzo[d]oxazole], the IC50 was < 100 nM.

As to `OCCOC(c1ccc(-c2nccs2)c2oc(N3CC4CCC(C3)N4)nc12)C(F)(F)F` (stereo not drawn) [Example 225, 2-(1-(2-(3,8-Diazabicyclo[3.2.1]octan-3-yl)-7-(thiazol-2-yl)benzo[d]oxazol-4-yl)-2,2,2-trifluoroethoxy)ethan-1-ol], the IC50 is < 100 nM.

In the case of `N#CCOC(c1ccc(-c2nccs2)c2oc(N3CC4CC(C3)N4)nc12)C(F)(F)F` (stereo not drawn) [Example 226, 2-(1-(2-(3,6-Diazabicyclo[3.1.1]heptan-3-yl)-7-(thiazol-2-yl)benzo[d]oxazol-4-yl)-2,2,2-trifluoroethoxy)acetonitrile], the IC50 is < 100 nM.

In the case of `OCCOC(c1ccc(-c2nccs2)c2oc(N3CC4CC(C3)N4)nc12)C(F)(F)F` (stereo not drawn) [Example 227, 2-(1-(2-(3,6-Diazabicyclo[3.1.1]heptan-3-yl)-7-(thiazol-2-yl)benzo[d]oxazol-4-yl)-2,2,2-trifluoroethoxy)ethan-1-ol], the IC50 is < 100 nM.

Take `N#CCOC(c1ccc(-c2nccs2)c2oc(N3CC4CCC(C3)N4)nc12)C(F)(F)F` (stereo not drawn) [Example 228, 2-(1-(2-(3,8-Diazabicyclo[3.2.1]octan-3-yl)-7-(thiazol-2-yl)benzo[d]oxazol-4-yl)-2,2,2-trifluoroethoxy)acetonitrile]: the IC50 is < 100 nM.

Regarding `COCCOC(c1ccc(-c2nccs2)c2oc(N3CC4CC(C3)N4)nc12)C(F)(F)F` (stereo not drawn) [Example 229, 2-(3,6-Diazabicyclo[3.1.1]heptan-3-yl)-7-(thiazol-2-yl)-4-(2,2,2-trifluoro-1-(2-methoxyethoxy)ethyl)benzo[d]oxazole], the IC50 was < 100 nM.

For the compound `OC1(COC(c2ccc(-c3nccs3)c3oc(N4CC5CC(C4)N5)nc23)C(F)(F)F)CC1` (stereo not drawn) [Example 232, 1-((1-(2-(3,6-Diazabicyclo[3.1.1]heptan-3-yl)-7-(thiazol-2-yl)benzo[d]oxazol-4-yl)-2,2,2-trifluoroethoxy)methyl)cyclopropan-1-ol], the IC50 was < 100 nM.

For the compound `OC(O)(c1ccc(-c2nccs2)c2oc(N3CC4CCC(C3)N4)nc12)C(F)(F)F` [Example 233, 1-(2-(3,8-Diazabicyclo[3.2.1]octan-3-yl)-7-(thiazol-2-yl)benzo[d]oxazol-4-yl)-2,2,2-trifluoroethane-1,1-diol], the IC50 was < 100 nM.

With `CC(O)(c1ccc(-c2nccs2)c2oc(N3CC4CC(C3)N4)nc12)C(F)(F)F` (stereo not drawn) [Example 234, 2-(2-(3,6-Diazabicyclo[3.1.1]heptan-3-yl)-7-(thiazol-2-yl)benzo[d]oxazol-4-yl)-1,1,1-trifluoropropan-2-ol], the IC50 was < 100 nM.

Regarding `COC(C)(c1ccc(-c2nccs2)c2oc(N3CC4CC(C3)N4)nc12)C(F)(F)F` (stereo not drawn) [Example 235, 2-(3,6-Diazabicyclo[3.1.1]heptan-3-yl)-7-(thiazol-2-yl)-4-(1,1,1-trifluoro-2-methoxypropan-2-yl)benzo[d]oxazole], the IC50 is < 100 nM.

`CC(O)(c1ccc(-c2nccs2)c2oc(N3CC4CCC(C3)N4)nc12)C(F)(F)F` (stereo not drawn) [Example 236, 2-(2-(3,8-Diazabicyclo[3.2.1]octan-3-yl)-7-(thiazol-2-yl)benzo[d]oxazol-4-yl)-1,1,1-trifluoropropan-2-ol]: the IC50 was < 100 nM.

With `COC(=O)c1ccc(-c2nccs2)c2oc(N3CC4CCC(C3)N4)nc12` [Example 237, Methyl 2-(3,8-diazabicyclo[3.2.1]octan-3-yl)-7-(thiazol-2-yl) benzo[d]oxazole-4-carboxylate], the IC50 is < 100 nM.

As for `O=C(O)c1ccc(-c2nccs2)c2oc(N3CC4CCC(C3)N4)nc12` [Example 238, 2-(3,8-Diazabicyclo[3.2.1]octan-3-yl)-7-(thiazol-2-yl) benzo[d]oxazole-4-carboxylic acid], the IC50 was < 100 nM.

For the compound `CC(O)c1ccc(-c2nccs2)c2oc(N3CC4CCCC(C3)N4)nc12` (stereo not drawn) [Example 239, 1-(2-(3,9-Diazabicyclo[3.3.1]nonan-3-yl)-7-(thiazol-2-yl)benzo[d]oxazol-4-yl)ethan-1-ol], the IC50 was < 100 nM.

For `CC(O)c1ccc(-c2nccs2)c2oc(N3CC4CC(C3)N4)nc12` (stereo not drawn) [Example 240, 1-(2-(3,6-Diazabicyclo[3.1.1]heptan-3-yl)-7-(thiazol-2-yl)benzo[d]oxazol-4-yl)ethan-1-ol], the IC50 was < 100 nM.

Consider `COC(C)c1ccc(-c2nccs2)c2oc(N3CC4CC(C3)N4)nc12` (stereo not drawn) [Example 241, 2-(3,6-Diazabicyclo[3.1.1]heptan-3-yl)-4-(1-methoxyethyl)-7-(thiazol-2-yl)benzo[d]oxazole], for which the IC50 was < 100 nM.

In the case of `COC(C)c1ccc(-c2nccs2)c2oc(N3CC4CCC(C3)N4)nc12` (stereo not drawn) [Example 242, 2-(3,8-Diazabicyclo[3.2.1]octan-3-yl)-4-(1-methoxyethyl)-7-(thiazol-2-yl)benzo[d]oxazole], the IC50 was < 100 nM.

In the case of `COC(C)c1ccc(-c2nccs2)c2oc(N3CC4CCCC(C3)N4)nc12` (stereo not drawn) [Example 243, 2-(3,9-Diazabicyclo[3.3.1]nonan-3-yl)-4-(1-methoxyethyl)-7-(thiazol-2-yl)benzo[d]oxazole], the IC50 was < 100 nM.

On to `CC(=O)c1ccc(-c2nccs2)c2oc(N3CC4CC(C3)N4)nc12` [Example 244, 1-(2-(3,6-Diazabicyclo[3.1.1]heptan-3-yl)-7-(thiazol-2-yl)benzo[d]oxazol-4-yl)ethan-1-one], for which the IC50 was < 100 nM.

For `CC(=O)c1ccc(-c2nccs2)c2oc(N3CC4CCC(C3)N4)nc12` [Example 245, 1-(2-(3,8-Diazabicyclo[3.2.1]octan-3-yl)-7-(thiazol-2-yl)benzo[d]oxazol-4-yl)ethan-1-one], the IC50 is < 100 nM.

Take `CC(C)(O)c1ccc(-c2nccs2)c2oc(N3CC4CCC(C3)N4)nc12` [Example 247, 2-(2-(3,8-Diazabicyclo[3.2.1]octan-3-yl)-7-(thiazol-2-yl)benzo[d]oxazol-4-yl)propan-2-ol]: the IC50 is < 100 nM.
